Experiments:
PARP2 = PARP2 (Homo sapiens, UniProt Q9UGN5); conditions: HeLa cells, iRucaparib 5 μM, 24 hours
Protocol: (§1) Quantitative Mass Spectrometry. […] Two biological replicate samples were prepared for each treatment condition. Cells were washed with cold PBS and lysed using the SDS lysis buffer. Protein concentrations were determined by the BCA assay (Thermo Fisher Scientific). For each sample, 500 μg of protein was used for the subsequent TMT experiments^34.
(§2) For the TMT experiments, proteins were reduced with 2 mM DTT for 10 min and alkylated with 50 mM iodoacetamide for 30 min in dark. Proteins were then extracted using methanol-chloroform precipitation. Protein pellets were dissolved in 400 μL 8 M Urea buffer (8 M urea, 50 mM Tris-HCl, 10 mM EDTA, pH 7.5) and were digested by Lys-C (Wako, at a 1:100 enzyme/protein ratio) for 2 hours at RT. The urea concentration was then reduced to 2 M using freshly made 100 mM ammonium bicarbonate solution. […]
(§3) Samples were desalted and fractioned by bRPLC (basic pH reversed phase HPLC) on a ZORBAX 300 Extend-C18 column (Narrow Bore RR 2.1 mm×100 mm, 3.5 μm particle size, 300 Å pore size). […] Samples were then analyzed on an Orbitrap Elite mass spectrometer (Thermo Fisher Scientific) using a top 15 HCD (higher-energy collisional dissociation) method.
(§4) The maximum intensity of each reporter ion was extracted. For each reporter ion channel, the observed signal-to-noise ratio was summed across all quantified proteins and was normalized.

ZFP91 = ZFP91 (Homo sapiens, UniProt Q96JP5+Q96SW2); conditions: HeLa cells, 5 μM, 24 hours
Protocol: as §1, §2, §3, §4

[1] = target: T1, hexose-6-phosphate dehydrogenase (H6PD) (Homo sapiens, UniProt O95479); experiment: TMT quantitative proteomics in HeLa cells, H6PD; assay type: cell-based; conditions: 5 μM, 24 hours
T1 construct: host or cells: HeLa
T1 sequence (O95479 20-791): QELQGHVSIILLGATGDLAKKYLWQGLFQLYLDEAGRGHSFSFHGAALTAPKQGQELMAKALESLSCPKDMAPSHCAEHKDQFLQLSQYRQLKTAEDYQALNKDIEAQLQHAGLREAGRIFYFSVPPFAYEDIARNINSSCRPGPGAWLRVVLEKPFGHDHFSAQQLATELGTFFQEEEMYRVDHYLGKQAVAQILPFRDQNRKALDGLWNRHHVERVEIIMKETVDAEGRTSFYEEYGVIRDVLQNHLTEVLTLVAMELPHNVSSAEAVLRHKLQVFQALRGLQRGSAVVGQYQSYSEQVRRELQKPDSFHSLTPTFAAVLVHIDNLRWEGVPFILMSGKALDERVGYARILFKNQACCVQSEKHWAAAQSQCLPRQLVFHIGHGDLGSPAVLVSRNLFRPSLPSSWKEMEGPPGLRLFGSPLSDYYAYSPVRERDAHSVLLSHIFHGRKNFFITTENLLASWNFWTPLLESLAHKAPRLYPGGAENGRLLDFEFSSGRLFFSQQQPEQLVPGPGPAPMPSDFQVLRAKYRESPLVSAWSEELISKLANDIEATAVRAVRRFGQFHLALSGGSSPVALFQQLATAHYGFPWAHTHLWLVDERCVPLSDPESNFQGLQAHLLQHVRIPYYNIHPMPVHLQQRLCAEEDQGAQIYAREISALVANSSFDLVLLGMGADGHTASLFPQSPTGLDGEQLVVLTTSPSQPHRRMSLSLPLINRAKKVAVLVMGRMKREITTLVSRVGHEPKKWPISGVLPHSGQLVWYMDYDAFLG
Text: (§5) Quantitative Mass Spectrometry.
(§6) Proteins were then extracted using methanol-chloroform precipitation.
(§7) The maximum intensity of each reporter ion was extracted.

[2] = target: T2, aldehyde dehydrogenase, mitochondria (ALDH2) (Homo sapiens, UniProt P05091); experiment: TMT quantitative proteomics in HeLa cells, ALDH2; assay type: cell-based; conditions: 5 μM, 24 hours
T2 construct: host or cells: HeLa
T2 sequence (P05091 18-517): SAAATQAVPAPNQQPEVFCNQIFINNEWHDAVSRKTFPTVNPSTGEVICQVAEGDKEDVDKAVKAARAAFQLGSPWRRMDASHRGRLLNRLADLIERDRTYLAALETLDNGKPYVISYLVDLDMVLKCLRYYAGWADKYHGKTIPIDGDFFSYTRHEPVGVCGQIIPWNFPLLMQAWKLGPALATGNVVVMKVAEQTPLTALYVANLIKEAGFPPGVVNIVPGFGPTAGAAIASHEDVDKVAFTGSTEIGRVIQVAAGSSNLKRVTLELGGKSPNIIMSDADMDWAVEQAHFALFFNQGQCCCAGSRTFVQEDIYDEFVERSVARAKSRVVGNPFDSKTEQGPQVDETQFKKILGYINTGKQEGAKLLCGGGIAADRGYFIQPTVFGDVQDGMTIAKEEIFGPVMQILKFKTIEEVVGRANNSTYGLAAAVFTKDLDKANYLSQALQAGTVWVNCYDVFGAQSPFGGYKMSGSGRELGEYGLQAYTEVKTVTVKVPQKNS
Text: as §5, §6, §7

C2C12 myotubes = experiment: NAD+ measurement in C2C12 myotubes after MMS; assay type: cell-based, mouse; conditions: 5 μM 24 hours pretreatment, MMS 0.01% 4 hours (MMS alone 31%)
Protocol: ATP and NAD^+ measurement. ATP levels were measured by a luminescence assay using the CellTiter-Glo luminescent kit (Promega). […] The cells were balanced for 30 min at RT. One hundred microliters of the CellTiter-Glo reagent was added into each well and incubated for 10 min. ATP levels were determined according the manufacturer's instruction. NAD^+ levels were assayed using an NAD/NADH quantification kit (Sigma). […] Approximately 2×10^5 cells were washed with 1 mL cold PBS and lysed in 400 μl of the extraction buffer. […] The samples were vortexed for 15 sec and centrifuged at 13,000 g for 10 min to remove the insoluble materials. NAD^+ was quantified according to the manufacturer's instruction (Sigma). Fifty microliters of the extracts were used in the NAD^+ assay, and the values were normalized by the amount of protein in each sample.

Sequence of PARP2 (Q9UGN5 whole entry): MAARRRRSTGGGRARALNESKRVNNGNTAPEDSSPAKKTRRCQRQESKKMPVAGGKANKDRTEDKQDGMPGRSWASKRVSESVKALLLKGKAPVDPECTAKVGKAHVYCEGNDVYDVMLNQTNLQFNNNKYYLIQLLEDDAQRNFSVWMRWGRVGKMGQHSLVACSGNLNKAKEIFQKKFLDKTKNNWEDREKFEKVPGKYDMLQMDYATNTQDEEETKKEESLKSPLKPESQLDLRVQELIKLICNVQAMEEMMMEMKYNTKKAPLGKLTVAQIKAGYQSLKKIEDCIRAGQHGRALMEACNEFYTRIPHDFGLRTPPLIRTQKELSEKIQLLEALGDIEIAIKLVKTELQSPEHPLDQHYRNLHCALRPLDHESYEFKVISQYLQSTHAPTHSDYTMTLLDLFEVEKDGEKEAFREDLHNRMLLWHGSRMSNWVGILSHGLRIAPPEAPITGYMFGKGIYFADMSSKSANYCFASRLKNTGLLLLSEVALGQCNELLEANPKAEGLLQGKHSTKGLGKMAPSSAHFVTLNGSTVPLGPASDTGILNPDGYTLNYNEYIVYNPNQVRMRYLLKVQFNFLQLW
Sequence of ZFP91 (Q16531 2-1140): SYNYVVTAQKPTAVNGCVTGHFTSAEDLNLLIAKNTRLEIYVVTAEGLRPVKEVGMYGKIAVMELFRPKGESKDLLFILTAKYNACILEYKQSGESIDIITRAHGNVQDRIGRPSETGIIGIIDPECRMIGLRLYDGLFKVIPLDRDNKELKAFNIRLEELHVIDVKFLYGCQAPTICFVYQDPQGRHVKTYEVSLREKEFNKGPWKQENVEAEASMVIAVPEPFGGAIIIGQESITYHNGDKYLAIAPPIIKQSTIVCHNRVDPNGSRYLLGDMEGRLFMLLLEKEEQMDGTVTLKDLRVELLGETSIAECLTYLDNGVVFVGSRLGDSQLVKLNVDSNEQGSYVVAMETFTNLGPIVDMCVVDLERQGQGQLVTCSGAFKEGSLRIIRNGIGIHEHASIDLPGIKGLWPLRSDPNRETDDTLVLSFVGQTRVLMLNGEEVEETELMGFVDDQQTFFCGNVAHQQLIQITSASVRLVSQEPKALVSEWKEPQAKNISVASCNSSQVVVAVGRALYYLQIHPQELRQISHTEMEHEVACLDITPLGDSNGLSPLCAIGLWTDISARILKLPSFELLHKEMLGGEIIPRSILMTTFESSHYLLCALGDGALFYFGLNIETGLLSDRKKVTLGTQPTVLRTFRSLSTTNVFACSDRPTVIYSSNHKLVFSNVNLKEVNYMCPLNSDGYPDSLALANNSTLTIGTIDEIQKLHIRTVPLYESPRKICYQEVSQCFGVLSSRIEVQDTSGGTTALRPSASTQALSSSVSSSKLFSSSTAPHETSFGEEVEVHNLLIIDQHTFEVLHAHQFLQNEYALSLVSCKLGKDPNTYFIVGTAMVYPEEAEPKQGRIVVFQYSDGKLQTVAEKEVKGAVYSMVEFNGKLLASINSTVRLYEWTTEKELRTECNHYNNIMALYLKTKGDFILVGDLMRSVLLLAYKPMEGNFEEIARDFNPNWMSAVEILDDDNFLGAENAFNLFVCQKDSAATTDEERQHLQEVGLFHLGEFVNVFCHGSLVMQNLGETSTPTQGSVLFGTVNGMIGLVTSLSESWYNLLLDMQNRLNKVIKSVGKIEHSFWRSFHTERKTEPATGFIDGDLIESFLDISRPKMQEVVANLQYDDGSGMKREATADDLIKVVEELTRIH
Sequence of ZFP91 (Q96SW2 whole entry): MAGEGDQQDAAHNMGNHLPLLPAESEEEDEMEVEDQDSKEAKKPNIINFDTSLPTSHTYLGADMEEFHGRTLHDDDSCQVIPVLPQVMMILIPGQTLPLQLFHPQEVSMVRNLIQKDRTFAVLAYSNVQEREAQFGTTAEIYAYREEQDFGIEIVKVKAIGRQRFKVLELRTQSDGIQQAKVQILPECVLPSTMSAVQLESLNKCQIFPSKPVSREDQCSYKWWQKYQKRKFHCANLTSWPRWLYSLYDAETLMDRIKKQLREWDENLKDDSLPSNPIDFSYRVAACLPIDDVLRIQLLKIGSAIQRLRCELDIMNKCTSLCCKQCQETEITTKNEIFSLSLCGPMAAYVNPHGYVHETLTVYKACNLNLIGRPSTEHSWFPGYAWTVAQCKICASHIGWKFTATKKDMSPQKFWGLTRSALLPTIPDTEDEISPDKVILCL
Sequence of ZFP91 (Q96JP5 2-570): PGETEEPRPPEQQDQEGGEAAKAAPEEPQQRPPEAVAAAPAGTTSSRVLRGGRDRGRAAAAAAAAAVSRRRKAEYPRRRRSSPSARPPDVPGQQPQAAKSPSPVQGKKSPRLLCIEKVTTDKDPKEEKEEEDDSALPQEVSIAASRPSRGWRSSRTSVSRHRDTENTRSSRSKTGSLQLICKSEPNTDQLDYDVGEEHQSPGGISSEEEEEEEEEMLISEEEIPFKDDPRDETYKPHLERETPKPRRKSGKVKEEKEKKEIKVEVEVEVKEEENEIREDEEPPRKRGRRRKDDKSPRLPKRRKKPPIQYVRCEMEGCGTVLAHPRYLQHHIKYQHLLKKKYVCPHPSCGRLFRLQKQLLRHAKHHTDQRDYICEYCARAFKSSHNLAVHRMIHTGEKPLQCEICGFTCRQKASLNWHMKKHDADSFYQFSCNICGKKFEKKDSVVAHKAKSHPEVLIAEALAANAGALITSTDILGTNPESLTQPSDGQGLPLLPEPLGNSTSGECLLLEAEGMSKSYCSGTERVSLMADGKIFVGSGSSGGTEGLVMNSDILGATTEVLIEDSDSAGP

`CN(CCCCc1cn(CCOCCOCCOCCNc2cccc3c2C(=O)N(C2CCC(=O)NC2=O)C3=O)nn1)Cc1ccc(-c2[nH]c3cc(F)cc4c3c2CCNC4=O)cc1` (centres unmarked) [iRucaparib, Rucaparib-Triazole-PEG3-Pomalidomide] was tested, and the PARP2 decrease (PARP2) was “about 30%”, the “ZFP91 Log 2(iRucaparib/DMSO) ratio” value (ZFP91) was −2.09 and the “H6PD Log 2(iRucaparib/DMSO) ratio” value [1] was 0.02. For the same compound, the “ALDH2 Log 2(iRucaparib/DMSO) ratio” value [2] was 0.05 and the “NAD+ levels, % of that in control cells” value (C2C12 myotubes) was 74%.
